The species named for one assay is Homo sapiens. In words: Inhibition of recombinant TIA1 (unknown origin) multimerization measured by FRET assay.
In a further assay the test system is HT-22. In words: Inhibition of TIA1 endogenously expressed in mouse HT-22 cells at 25 to 100 uM assessed as sodium arsenite-induced stress granule formation and measured by FRET assay relative to control. The class given is cell-based. As to conditions: dose 25-100 µM.

In ChEMBL document CHEMBL5052847, “Identification of compounds that inhibit stress granule formation and tau aggregation by targeting tia1” (2021) one finds inhibition data, which are given here for eleven molecules.

Active and inactive are the calls of the source. The calls are words filed in the database; no cut-off is given here.

Take `Cc1cccc(-n2sc3ccccc3c2=O)c1`: the inhibition entry in the assay listed under Homo sapiens and in the assay with HT-22 was “Active” each time.

Turning to `O=C1c2ccccc2S(=O)(=O)N1c1ccccc1F`, the inhibition entry in the assay listed under Homo sapiens and in the assay on HT-22 was “Active” throughout.

Turning to `O=c1c2ccccc2sn1-c1cccc(S(=O)(=O)N2CCCCCC2)c1`, the inhibition result in the assay listed under Homo sapiens and in the assay with HT-22 was “Active” throughout.

For the molecule `O=c1c2ccccc2sn1-c1nccs1`, the inhibition entry in the assay listed under Homo sapiens and in the assay on HT-22 was “Active” throughout.

Regarding `O=c1c2ccccc2sn1-c1ccc(Cl)cc1`, the inhibition entry in the assay listed under Homo sapiens and in the assay on HT-22 was “Active” throughout.

As to `O=C(O)c1ccccc1NS(=O)(=O)c1cccc(-n2sc3ccccc3c2=O)c1`, the inhibition entry in the assay filed under Homo sapiens and in the assay on HT-22 was “Active” each time.

In the case of `Cc1ccc(C)c(-n2sc3cc(F)ccc3c2=O)c1`, the inhibition result in the assay listed under Homo sapiens and in the assay with HT-22 was “Active” each time.

For `CCN(CC)S(=O)(=O)c1cccc(-n2sc3ccccc3c2=O)c1`, the inhibition result in the assay listed under Homo sapiens and in the assay on HT-22 was “Active” in each case.

For the molecule `O=c1c2ccccc2sn1-c1ccc(Cl)c(S(=O)(=O)N2CCOCC2)c1`, the inhibition entry in the assay filed under Homo sapiens and with HT-22 was “Active” throughout.

Regarding `O=c1c2ccccc2sn1-c1cccc(S(=O)(=O)Nc2ccc(Cl)cc2)c1`, the inhibition result in the assay filed under Homo sapiens and with HT-22 was “Active” in each case.

On to `CN(C)S(=O)(=O)c1cccc(-n2sc3ccccc3c2=O)c1`, for which the inhibition entry in the assay listed under Homo sapiens and in the assay on HT-22 was “Active” each time.
